Laboratory results taken from patent publication US20070128217A1 (priority 2003, published 2007).

Tests used:
[1] = test system: rabbit serum obtained by immunizing a rabbit with the SARS-CoV strain Frankfurt 1; assay type: binding; parameters: Binding of a rabbit serum to linear peptides / Binding of a rabbit serum to looped peptides / Rabbit serum linear peptides / Rabbit serum looped peptides / Binding of a rabbit serum to linear peptides of protein N of SARS-CoV Urbani (Rabbit serum linear peptides) / Binding of a rabbit serum to looped/cyclic peptides of protein N of SARS-CoV Urbani (Rabbit serum looped peptides): unit not given here
[2] = test system: antibodies in sera from SARS patients (sera 1a, 1b, 2, 6, 37, 62, London, SARS-yellow, SARS-green); assay type: binding, human; parameters: Binding of serum 6 to linear peptides of protein X1 of SARS-CoV Urbani / Binding of serum 37 to linear peptides of protein X1 of SARS-CoV Urbani / Binding of serum 6 to looped/cyclic peptide (PEPSCAN-ELISA) / Binding of serum 37 to looped/cyclic peptide (PEPSCAN-ELISA) / Binding of serum 37 to looped/cyclic peptides of protein X1 of SARS-CoV Urbani / Binding of serum 6 to linear peptides of protein X2 / Binding of serum 37 to linear peptides of protein X2 / Binding of serum 37 to looped/cyclic peptides of protein X2 of SARS-CoV Urbani / Binding of serum 6 to linear peptides of protein M of SARS-CoV Urbani / Binding of serum 37 to linear peptides of protein M of SARS-CoV Urbani / Binding of serum 6 to looped/cyclic peptides of protein M of SARS-CoV Urbani / Binding of serum 37 to looped/cyclic peptides of protein M of SARS-CoV Urbani / Binding of serum 6 to linear peptides of protein X3 of SARS-CoV Urbani / Binding of serum 37 to linear peptides of protein X3 of SARS-CoV Urbani / Binding of serum 37 to looped/cyclic peptides of protein X3 of SARS-CoV Urbani / Binding of serum 6 to linear peptides of protein X4 of SARS-CoV Urbani / Binding of serum 37 to linear peptides of protein X4 of SARS-CoV Urbani / Binding of serum 37 to looped/cyclic peptides of protein X4 of SARS-CoV Urbani / Binding of serum 6 to linear peptides of protein X5 of SARS-CoV Urbani / Binding of serum 37 to linear peptides of protein X5 of SARS-CoV Urbani / Binding of serum 37 to looped/cyclic peptides of protein X5 of SARS-CoV Urbani / Binding of serum 6 to linear peptides of protein N of SARS-CoV Urbani / Binding of serum 37 to linear peptides of protein N of SARS-CoV Urbani / Binding of serum 6 to linear peptide (PEPSCAN-ELISA) / Binding of serum 1a to looped/cyclic peptides of protein N of SARS-CoV Urbani / Binding of serum 1b to looped/cyclic peptides of protein N of SARS-CoV Urbani / Binding of serum 2 to looped/cyclic peptides of protein N of SARS-CoV Urbani / Binding of serum 6 to looped/cyclic peptides of protein N of SARS-CoV Urbani / Binding of serum 37 to looped/cyclic peptides of protein N of SARS-CoV Urbani / Binding of serum 62 to looped/cyclic peptides of protein N of SARS-CoV Urbani / Binding of serum London to looped/cyclic peptides of protein N of SARS-CoV Urbani / Binding of serum SARS-green to looped/cyclic peptides of protein N of SARS-CoV Urbani: unit not given here
[3] = test system: control sera (pooled serum of ten healthy LUMC hospital workers; commercial negative donor pooled serum from the Dutch bloodbank); assay type: binding, human; parameters: Binding of Control serum LUMC to linear peptides / Binding of Control serum Blood-bank to linear peptides / Binding of Control serum LUMC to looped peptides / Binding of Control Serum Blood-Bank to Looped peptides / Binding of Control serum LUMC to linear peptides of the protein M of SARS-CoV Urbani / Binding of Control serum Blood-bank to linear peptides of the protein M of SARS-CoV Urbani / Binding of Control serum LUMC to looped peptides of the protein M of SARS-CoV Urbani / Binding of Control Serum Blood-Bank to Looped peptides of the protein M of SARS-CoV Urbani: unit not given here

NPETNILLNVPLRGT
Rabbit serum linear peptides [1]: 0.4
Rabbit serum looped peptides [1]: 0.2
Binding of serum 1a to linear peptides of protein M of SARS-CoV Urbani [2]: 0.8
Binding of serum 1a to looped/cyclic peptides of protein M of SARS-CoV Urbani [2]: 0.8
Binding of serum 1b to linear peptides of protein M of SARS-CoV Urbani [2]: 0.6
Binding of serum 1b to looped/cyclic peptides of protein M of SARS-CoV Urbani [2]: 0.7
Binding of serum 2 to linear peptides of protein M of SARS-CoV Urbani [2]: 0.8
Binding of serum 2 to looped/cyclic peptides of protein M of SARS-CoV Urbani [2]: 0.9
Binding of serum 6 to linear peptides of protein M of SARS-CoV Urbani [2]: 0.3
Binding of serum 6 to looped/cyclic peptides of protein M of SARS-CoV Urbani [2]: 0.7
Binding of serum 37 to linear peptides of protein M of SARS-CoV Urbani [2]: 0.9
Binding of serum 37 to looped/cyclic peptides of protein M of SARS-CoV Urbani [2]: 0.7
Binding of serum 62 to linear peptides of protein M of SARS-CoV Urbani [2]: 0.9
Binding of serum 62 to looped/cyclic peptides of protein M of SARS-CoV Urbani [2]: 0.7
Binding of serum London to linear peptides of protein M of SARS-CoV Urbani [2]: 0.3
Binding of serum London to looped/cyclic peptides of protein M of SARS-CoV Urbani [2]: 0.3
Binding of serum SARS-green to linear peptides of protein M of SARS-CoV Urbani [2]: 0.3
Binding of serum SARS-green to looped/cyclic peptides of protein M of SARS-CoV Urbani [2]: 0.4
Binding of serum SARS-yellow to linear peptides of protein M of SARS-CoV Urbani [2]: 0.1
Binding of serum SARS-yellow to looped/cyclic peptides of protein M of SARS-CoV Urbani [2]: 0.7
Binding of Control Serum Blood-Bank to Looped peptides of the protein M of SARS-CoV Urbani [3]: 0.8
Binding of Control serum Blood-bank to linear peptides of the protein M of SARS-CoV Urbani [3]: 0.7
Binding of Control serum LUMC to linear peptides of the protein M of SARS-CoV Urbani [3]: 0.4
Binding of Control serum LUMC to looped peptides of the protein M of SARS-CoV Urbani [3]: 0.9

NPLLYDANYFVCWHT
Binding of a rabbit serum to linear peptides [1]: 0.2
Binding of a rabbit serum to looped peptides [1]: 0.6
Binding of serum 1a to linear peptides of protein X1 of SARS-CoV Urbani [2]: 0.9
Binding of serum 1a to looped/cyclic peptide (PEPSCAN-ELISA) [2]: 0.5
Binding of serum 1b to linear peptides of protein X1 of SARS-CoV Urbani [2]: 0.6
Binding of serum 1b to looped/cyclic peptide (PEPSCAN-ELISA) [2]: 0.4
Binding of serum 2 to linear peptides of protein X1 of SARS-CoV Urbani [2]: 0.6
Binding of serum 2 to looped/cyclic peptide (PEPSCAN-ELISA) [2]: 0.4
Binding of serum 6 to linear peptides of protein X1 of SARS-CoV Urbani [2]: 0.5
Binding of serum 6 to looped/cyclic peptide (PEPSCAN-ELISA) [2]: 0.3
Binding of serum 37 to linear peptides of protein X1 of SARS-CoV Urbani [2]: 0.8
Binding of serum 37 to looped/cyclic peptide (PEPSCAN-ELISA) [2]: 0.5
Binding of serum 62 to linear peptides of protein X1 of SARS-CoV Urbani [2]: 0.7
Binding of serum 62 to looped/cyclic peptide (PEPSCAN-ELISA) [2]: 0.6
Binding of serum London to linear peptides of protein X1 of SARS-CoV Urbani [2]: 0.3
Binding of serum London to looped/cyclic peptide (PEPSCAN-ELISA) [2]: 0.2
Binding of serum SARS-green to linear peptides of protein X1 of SARS-CoV Urbani [2]: 0.4
Binding of serum SARS-green to looped/cyclic peptide (PEPSCAN-ELISA) [2]: 0.3
Binding of serum SARS-yellow to linear peptides of protein X1 of SARS-CoV Urbani [2]: 0.4
Binding of serum SARS-yellow to looped/cyclic peptide (PEPSCAN-ELISA) [2]: 0.4
Binding of Control Serum Blood-Bank to Looped peptides [3]: 0.7
Binding of Control serum Blood-bank to linear peptides [3]: 0.6
Binding of Control serum LUMC to linear peptides [3]: 0.6
Binding of Control serum LUMC to looped peptides [3]: 0.6

NRFLYIIKLVFLWLL
Rabbit serum linear peptides [1]: 0.4
Rabbit serum looped peptides [1]: 0.3
Binding of serum 1a to linear peptides of protein M of SARS-CoV Urbani [2]: 0.7
Binding of serum 1b to linear peptides of protein M of SARS-CoV Urbani [2]: 0.5
Binding of serum 2 to linear peptides of protein M of SARS-CoV Urbani [2]: 0.5
Binding of serum 6 to linear peptides of protein M of SARS-CoV Urbani [2]: 0.3
Binding of serum 37 to linear peptides of protein M of SARS-CoV Urbani [2]: 0.7
Binding of serum 62 to linear peptides of protein M of SARS-CoV Urbani [2]: 0.7
Binding of serum London to linear peptides of protein M of SARS-CoV Urbani [2]: 0.3
Binding of serum SARS-green to linear peptides of protein M of SARS-CoV Urbani [2]: 0.3
Binding of serum SARS-yellow to linear peptides of protein M of SARS-CoV Urbani [2]: 0.1
Recognition of the peptide by sera of SARS-CoV infected individuals, and form (linear, looped/cyclic) in which it is recognized [2]: recognized in looped/cyclic form
Binding of Control Serum Blood-Bank to Looped peptides of the protein M of SARS-CoV Urbani [3]: 0.7
Binding of Control serum Blood-bank to linear peptides of the protein M of SARS-CoV Urbani [3]: 0.7
Binding of Control serum LUMC to linear peptides of the protein M of SARS-CoV Urbani [3]: 0.3
Binding of Control serum LUMC to looped peptides of the protein M of SARS-CoV Urbani [3]: 0.6

NRNRFLYIIKLVFLW
Rabbit serum linear peptides [1]: 0.5
Rabbit serum looped peptides [1]: 0.4
Binding of serum 1a to linear peptides of protein M of SARS-CoV Urbani [2]: 0.7
Binding of serum 1b to linear peptides of protein M of SARS-CoV Urbani [2]: 0.4
Binding of serum 2 to linear peptides of protein M of SARS-CoV Urbani [2]: 0.6
Binding of serum 6 to linear peptides of protein M of SARS-CoV Urbani [2]: 0.3
Binding of serum 37 to linear peptides of protein M of SARS-CoV Urbani [2]: 0.7
Binding of serum 62 to linear peptides of protein M of SARS-CoV Urbani [2]: 0.7
Binding of serum London to linear peptides of protein M of SARS-CoV Urbani [2]: 0.3
Binding of serum SARS-green to linear peptides of protein M of SARS-CoV Urbani [2]: 0.3
Binding of serum SARS-yellow to linear peptides of protein M of SARS-CoV Urbani [2]: 0.1
Recognition of the peptide by sera of SARS-CoV infected individuals, and form (linear, looped/cyclic) in which it is recognized [2]: recognized in looped/cyclic form
Binding of Control Serum Blood-Bank to Looped peptides of the protein M of SARS-CoV Urbani [3]: 0.8
Binding of Control serum Blood-bank to linear peptides of the protein M of SARS-CoV Urbani [3]: 0.7
Binding of Control serum LUMC to linear peptides of the protein M of SARS-CoV Urbani [3]: 0.4
Binding of Control serum LUMC to looped peptides of the protein M of SARS-CoV Urbani [3]: 0.7

NRYRIGNYKLNTDHA
Rabbit serum linear peptides [1]: 0.2
Rabbit serum looped peptides [1]: 0.3
Binding of serum 1a to linear peptides of protein M of SARS-CoV Urbani [2]: 0.8
Binding of serum 1a to looped/cyclic peptides of protein M of SARS-CoV Urbani [2]: 0.8
Binding of serum 1b to linear peptides of protein M of SARS-CoV Urbani [2]: 0.6
Binding of serum 1b to looped/cyclic peptides of protein M of SARS-CoV Urbani [2]: 0.6
Binding of serum 2 to linear peptides of protein M of SARS-CoV Urbani [2]: 0.5
Binding of serum 2 to looped/cyclic peptides of protein M of SARS-CoV Urbani [2]: 0.5
Binding of serum 6 to linear peptides of protein M of SARS-CoV Urbani [2]: 0.3
Binding of serum 6 to looped/cyclic peptides of protein M of SARS-CoV Urbani [2]: 0.7
Binding of serum 37 to linear peptides of protein M of SARS-CoV Urbani [2]: 0.5
Binding of serum 37 to looped/cyclic peptides of protein M of SARS-CoV Urbani [2]: 0.6
Binding of serum 62 to linear peptides of protein M of SARS-CoV Urbani [2]: 0.6
Binding of serum 62 to looped/cyclic peptides of protein M of SARS-CoV Urbani [2]: 0.5
Binding of serum London to linear peptides of protein M of SARS-CoV Urbani [2]: 0.2
Binding of serum London to looped/cyclic peptides of protein M of SARS-CoV Urbani [2]: 0.4
Binding of serum SARS-green to linear peptides of protein M of SARS-CoV Urbani [2]: 0.2
Binding of serum SARS-green to looped/cyclic peptides of protein M of SARS-CoV Urbani [2]: 0.3
Binding of serum SARS-yellow to linear peptides of protein M of SARS-CoV Urbani [2]: 0.1
Binding of serum SARS-yellow to looped/cyclic peptides of protein M of SARS-CoV Urbani [2]: 0.9
Binding of Control Serum Blood-Bank to Looped peptides of the protein M of SARS-CoV Urbani [3]: 0.7
Binding of Control serum Blood-bank to linear peptides of the protein M of SARS-CoV Urbani [3]: 0.2
Binding of Control serum LUMC to linear peptides of the protein M of SARS-CoV Urbani [3]: 0.2
Binding of Control serum LUMC to looped peptides of the protein M of SARS-CoV Urbani [3]: 0.7
